Here are results for 8 compounds from patent publication US20160235724A1, “TETRAHYDROPYRIDOETHERS FOR THE TREATMENT OF STARGARDT'S DISEASE” (KATAIRO GMBH, priority 2013, published 2016).

Data set [1] concerns RPE cells. The settings on record: known from the literature; cited from earlier work.
Data set [2] concerns Cynomolgus monkey. In words: 52-week oral administration in the Cynomolgus monkey, conventional histopathology of the eye. Format: in vivo. How it is done:
Soraprazan was administrated in oral application of 6, 12 and 24 mg/kg/day for 52 weeks in the Cynomolgus monkey.
Some monkeys from the control and the high-dose group were subjected to a recovery period of 3 months.

The subject of data set [3] is lipofuscin in RPE cells of ABCA4−/− mice. Briefly: Quantification and ultrastructural (TEM) analysis of lipofuscin in RPE after single intravitreal injection in ABCA4−/− mice (Stargardt's disease model). Format: in vivo, mouse. The following applies: single intravitreal injection 0.32 mg. How it is done:
Pigmented ABCA4^−/− mice (129S4/SvJae-ABCA4^tm1Ght) were provided by Gabriel Travis (David Geffen School of Medicine, University of California, Los Angeles, Calif.) and bred in the Biomedical Sciences division, University of Oxford. All experiments were conducted in female mice. The animals were kept in a 12 hour light (<100 lux)/dark cycle, with food and water available ad libitum. All animal breeding and experimental procedures were performed under approval of local and national ethical and legal authorities, and were conducted in compliance with the ARVO statement for the Use of Animals in Ophthalmic and Vision Research.
(§1) Two μl PBS containing a total amount of 0.32 mg Soraprazan in suspension were injected into the vitreous of three 12 months old ABCA4^−/− mice.
(§2) The eyes were enucleated after four weeks. Two untreated aged matched ABCA4^−/− mice served as controls. After enucleation, the eyes were cleaned of orbital tissue and, after removal of the cornea, were fixed overnight at 4° C. in 2% glutaraldehyde in 0.1 M cacodylate buffer (pH 7.4) containing 100 mM sucrose. After washing with cacodylate buffer, areas of interest in flat mount preparations were excised and post-fixed with 1% osmium tetroxide in 0.1 M cacodylate buffer at room temperature for 1 h. In some parts of the eyes osmication was omitted which preserved the autofluorescence of lipofuscin. Dehydration was then started by a series of incubations in 30, 50, and 70% ethanol. The samples were stained with saturated uranyl acetate. Dehydration was continued by incubations in 70, 80, 95, 100% ethanol and propylene oxide. The samples were then embedded in Epon (SPI-Pon™812 Epoxy Embedding Kit, SPI supplies, West Chester, Pa.). For light and fluorescence microscopy, staining with osmium and uranylacetate was omitted.
Ultrathin Epon sections (70 nm) from WT control eyes and ABCA4^−/− eyes were post-stained with lead citrate and investigated under a transmission electron microscope (TEM; Model 902 A, Carl Zeiss, Oberkochen, Germany). For statistical analysis, the areas occupied by lipofuscin granules were quantified in 8-10 micrographs from each group. […] For lipofuscin quantification, image analysis software (iTEM, Olympus Soft imaging Solutions, Munster, Germany) was used. For each image, the total area of RPE cytoplasm was determined. […] The area fraction of lipofuscin/melanolipofuscin is expressed as area in μm^2 occupied by lipofuscin per 100 μm^2 RPE cytoplasm.
Statistical significance for the ultrastructural evaluation of lipofuscin granules was determined by using Dunnett's test and the JMP9 statistical program (SAS; Heidelberg, Germany). […]

The test system is the same in data set [4]. Briefly: Fluorescence microscopy of autofluorescent lipofuscin granules in RPE semithin sections of ABCA4−/− mice. Format: in vivo, mouse. The following applies: 12-month-old ABCA4−/− mice, 4 weeks after single intravitreal injection of 0.32 mg, qualitative. The procedure: as §1
as §2, with “The samples were stained with saturated uranyl acetate. Dehydration was continued by incubations in 70, 80, 95, 100% ethanol and propylene oxide. The samples were then embedded in Epon (SPI-Pon™812 Epoxy Embedding Kit, SPI supplies, West Chester, Pa.).” left out
Autofluorescent lipofuscin and melanolipofuscin granules were photographed in semi thin sections using a fluorescence microscope (Zeiss Axioplan2 imaging, excitation 370/36 nm, emission 575/15 nm, 40× objective) connected to a personal computer equipped with a CDD camera. Since the granules could not clearly be separated from each other and lipofuscin cannot be differentiated from melanolipofuscin, the quantification of lipofuscin granules was performed using electron microscopy.

Several values for one entry are separate records, joined by “and”; a condition that tells them apart may be missing. Equal values may be shown once.

For `CO[C@H]1c2ccn3c(C)c(C)nc3c2N[C@@H](c2ccccc2)[C@@H]1O` [Example 1B, (7S,8S,9S)-2,3-Dimethyl-8-hydroxy-7-methoxy-9-phenyl-7,8,9,10-tetrahydro-imidazo [1,2-h][1,7] naphthyridine], the melting point (commonly the temperature, or range, at which the solid turns liquid) was in the range of 161 to 162 °C.
`CO[C@H]1c2ccn3c(C)c(C)nc3c2N[C@H](c2ccccc2)[C@H]1O` [Example 2A, (7S,8R,9R)-2,3-Dimethyl-8-hydroxy-7-methoxy-9-phenyl-7,8,9,10-tetrahydro-imidazo [1,2-h][1,7]naphthyridine] gave a melting point of 108 to 110 °C.
Take `CO[C@@H]1c2ccn3c(C)c(C)nc3c2N[C@@H](c2ccccc2)[C@@H]1O` [Example 2B, (7R,8S,9S)-2,3-Dimethyl-8-hydroxy-7-methoxy-9-phenyl-7,8,9,10-tetrahydro-imidazo[1,2-h][1,7]naphthyridine]: the melting point lay in the range of 171 to 172 °C.
The same measure, in the same setting: the result for `CCO[C@@H]1c2ccn3c(C)c(C)nc3c2N[C@H](c2ccccc2)[C@H]1O` [Example 3, (7R,8R,9R)-2,3-Dimethyl-7-ethoxy-8-hydroxy-9-phenyl-7,8,9,10-tetrahydro-imidazo [1,2-h][1,7]naphthyridine] reads 188 to 190 °C.
On to `CCO[C@H]1c2ccn3c(C)c(C)nc3c2N[C@H](c2ccccc2)[C@H]1O` [Example 4, (7S,8R,9R)-2,3-Dimethyl-7-ethoxy-8-hydroxy-9-phenyl-7,8,9,10-tetrahydro-imidazo [1,2-h][1,7]naphthyridine], for which the melting point was 135 to 137 °C.
Still for that read-out and setting: the result for `Cc1nc2c3c(ccn2c1C)[C@H](OC(C)C)[C@H](O)[C@@H](c1ccccc1)N3` [Example 7, (7S,8R,9R)-2,3-Dimethyl-8-hydroxy-9-phenyl-7-(2-propoxy)-7,8,9,10-tetrahydro-imidazo [1,2-h][1,7]naphthyridine] reads 168 to 169 °C; that for `CO[C@@H]1[C@@H](c2ccccc2)Nc2c(ccn3c(C)c(C)nc23)[C@H]1OC` [Example 8, (7R,8R,9R)-2,3-Dimethyl-7,8-dimethoxy-9-phenyl-7,8,9,10-tetrahydro-imidazo[1,2-h][1,7]naphthyridine], 155 to 156 °C.
Turning to `COCCO[C@@H]1c2ccn3c(C)c(C)nc3c2N[C@H](c2ccccc2)[C@H]1O` [Soraprazan, (7R,8R,9R)-2,3-Dimethyl-8-hydroxy-7-(2-methoxyethoxy)-9-phenyl-7,8,9,10-tetrahydro-imidazo [1,2-h][1,7]naphthyridine], the “removal of "natural" lipofuscin from RPE cells” value in data set [1] is reported as “remove such lipofuscin from RPE cells”. Moreover, the conventional histopathology findings result in data set [2] (oral 6 mg/kg/day for 52 weeks) is “no alterations”. For the same compound, in data set [2] (oral 12 mg/kg/day for 52 weeks), the conventional histopathology findings result was “no alterations”. For the same compound, in data set [2] (oral 24 mg/kg/day for 52 weeks), the “monkeys showing migration of individual macrophages beneath the RPE and/or into the subretinal space” value is given as “Three out of 12” and the “photoreceptors facing the depigmented RPE” value is “stayed healthy”. In addition, the “monkeys with depigmentation of RPE cells” value in data set [2] (oral 24 mg/kg/day for 52 weeks, among the 3 monkeys with macrophage migration) is “Two of these 3”. In data set [3] (12-month-old ABCA4−/− mice, eyes enucleated after four weeks, untreated median 12.92%, p<0.0001, Dunnett's test), the “percent area occupied by lipofuscin in RPE cell cytoplasm (median)” value came to 6.42%. Also, the “electron-opaque lipofuscin granules in RPE (TEM) compared to controls” value in data set [3] (12-month-old ABCA4−/− mice, four weeks) is listed as “significantly reduced in number”. Besides, the “appearance of retinas of treated animals” value in data set [3] (ABCA4−/− mice) is reported as “removing lipofuscin. Retinas of treated animals made a healthy”. In addition, the “lipofuscin content of RPE cells after treatment (study overview result)” value in data set [3] (ABCA4−/− mice, 44 retinal areas, p < 0.0001) was “significantly reduced and 1. Lipofuscin is removed from ABCA4^−/− mouse RPE cells after”. Besides, the “lipofuscin in RPE under fluorescent light compared to untreated mice” value in data set [4] is “lipofuscin was reduced”.
